Test system: human multiple myeloma (RPMI-8226) tumors
Test: Sub-cutaneous human multiple myeloma (RPMI-8226) tumor model in NSG mice
Type: in vivo, mouse
Settings: ~100 mm^3 RPMI-8226 tumors, 10^7 CAR T cells or Bortezomib, two independent experiments
Method: Hyperactivation and increased apoptosis could negatively impact CAR T cell persistence in patients and ultimately clinical efficacy. The anti-tumor function of anti-BCMA02 CAR T cells and anti-BCMA10 CAR T cells was examined in a mouse tumor model. NOD scid gamma (NSG) mice with ˜100 mm^3 experimental sub-cutaneous human multiple myeloma (RPMI-8226) tumors were treated with 10^7 anti-BCMA02 CAR T cells, 10^7 anti-BCMA10 CAR T cells, or Bortezomib (velcade). RPMI-8226 growth was monitored with calipers.

Compound: CC(C)C[C@H](NC(=O)[C@H](Cc1ccccc1)NC(=O)c1cnccn1)B(O)O [Bortezomib]
- tumor growth (calipers): controlled tumor growth
